Literature values in PubChem BioAssay AID1259409 (Chemical Carcinogenesis Research Information System (CCRIS), 2018).

Tested on: rodent chemically induced tumor inhibition, incidence and multiplicity
Assay: CCRIS tumor inhibitor studies
Conditions: Carcinogen: 7,12-DIMETHYLBENZ[A]ANTHRACENE, 57-97-6, Route [Inhibitor]: DERMAL, Species: MOUSE, Target Tissue: Type of Lesion: SKIN: PAPILLOMA, Dose [Carcinogen]: 200 NMOL IN 0.2 ML ACETONE ONCE, Promoter: 12-O-TETRADECANOYLPHORBOL-13-ACETATE, 16561-29-8

## C/C(=C\c1ccc2c(c1)C(C)(C)CCC2(C)C)c1ccc(C(=O)O)cc1
Dose [Inhibitor]: 0.17 NMOL IN 0.2 ML ACETONE 1 HR PRIOR TO EACH PROMOTER DOSE FOR 12 WK (STUDY DURATION: 14 WK), Strain/Sex: SENCAR/FEMALE
  tumour outcome (control, treated, inhibition, significance): 100%, 93%, 7%, not calculated
Dose [Inhibitor]: 0.17 NMOL IN 0.2 ML ACETONE 1 HR PRIOR TO EACH PROMOTER DOSE FOR 20 WK (STUDY DURATION: 22 WK), Strain/Sex: CD-1/FEMALE
  tumour outcome (control, treated, inhibition, significance): 94%, 87%, 8%, not calculated
Dose [Inhibitor]: 1.7 NMOL IN 0.2 ML ACETONE 1 HR PRIOR TO EACH PROMOTER DOSE FOR 12 WK (STUDY DURATION: 14 WK), Strain/Sex: SENCAR/FEMALE
  tumour outcome (control, treated, inhibition, significance): 100%, 97%, 3%, not calculated
Dose [Inhibitor]: 1.7 NMOL IN 0.2 ML ACETONE 1 HR PRIOR TO EACH PROMOTER DOSE FOR 20 WK (STUDY DURATION: 22 WK), Strain/Sex: CD-1/FEMALE
  tumour outcome (control, treated, inhibition, significance): 94%, 69%, 27%, not calculated
Dose [Inhibitor]: 17 NMOL IN 0.2 ML ACETONE 1 HR PRIOR TO EACH PROMOTER DOSE FOR 12 WK (STUDY DURATION: 14 WK), Strain/Sex: SENCAR/FEMALE
  tumour outcome (control, treated, inhibition, significance): 100%, 3%, 97%, not calculated
Dose [Inhibitor]: 17 NMOL IN 0.2 ML ACETONE 1 HR PRIOR TO EACH PROMOTER DOSE FOR 20 WK (STUDY DURATION: 22 WK), Strain/Sex: CD-1/FEMALE
  tumour outcome (control, treated, inhibition, significance): 94%, 0%, 100%, not calculated
